Biological target: T1, cAMP and cAMP-inhibited cGMP 3',5'-cyclic phosphodiesterase 10A (Rattus norvegicus, UniProt Q9QYJ6)
T1 sequence (Q9QYJ6 whole entry): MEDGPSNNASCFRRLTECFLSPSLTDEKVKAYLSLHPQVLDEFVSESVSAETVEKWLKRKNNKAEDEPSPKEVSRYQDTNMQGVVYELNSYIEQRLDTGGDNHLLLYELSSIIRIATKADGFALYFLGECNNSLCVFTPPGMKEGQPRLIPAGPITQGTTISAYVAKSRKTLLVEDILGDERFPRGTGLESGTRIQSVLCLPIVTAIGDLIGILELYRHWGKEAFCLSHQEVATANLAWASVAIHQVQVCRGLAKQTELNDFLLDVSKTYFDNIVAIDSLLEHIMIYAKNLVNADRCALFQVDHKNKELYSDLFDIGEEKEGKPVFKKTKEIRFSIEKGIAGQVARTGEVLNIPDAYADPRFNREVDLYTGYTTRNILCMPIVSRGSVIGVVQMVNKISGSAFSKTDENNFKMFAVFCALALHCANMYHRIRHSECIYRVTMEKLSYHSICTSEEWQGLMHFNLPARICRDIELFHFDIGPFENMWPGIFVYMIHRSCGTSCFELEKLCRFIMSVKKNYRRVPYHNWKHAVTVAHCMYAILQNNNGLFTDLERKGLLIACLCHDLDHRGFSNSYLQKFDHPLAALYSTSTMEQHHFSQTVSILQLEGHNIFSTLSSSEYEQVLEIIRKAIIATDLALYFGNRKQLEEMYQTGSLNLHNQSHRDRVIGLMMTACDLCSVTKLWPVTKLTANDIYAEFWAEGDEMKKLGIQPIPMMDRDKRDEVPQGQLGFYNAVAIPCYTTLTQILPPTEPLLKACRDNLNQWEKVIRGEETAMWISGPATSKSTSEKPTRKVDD
Assay: Enzyme Inhibition Assay: Enzyme activity: An IMAP TR-FRET assay was used to analyze the enzyme activity (Molecular Devices Corp., Sunnyvale, Calif).

Compound `OCC1CCN(c2cncc(OC3CN(c4ccc5ccccc5n4)C3)n2)CC1` has an IC50 of 0.639 nM.
In the case of `OCC1CCN(c2nccnc2OC2CN(c3ccc4ccccc4n3)C2)CC1`, the IC50 is reported as 2.3 nM.
`OCC1CCN(c2nccnc2OC2CN(c3cnc4ccccc4n3)C2)CC1` was tested, and the IC50 was 37.8 nM.
`OCC1CCN(c2nccnc2O[C@@H]2CCN(c3ccc4ccccc4n3)C2)CC1` was tested, and the IC50 was 167 nM.
`OCC1CCN(c2nccnc2O[C@H]2CCN(c3ccc4ccccc4n3)C2)CC1` showed an IC50 of 78 nM.
`OCC1CCN(c2nc3ccccc3nc2OC2CN(c3ccc4ccccc4n3)C2)CC1` was tested, and the IC50 was 9.75 nM.
With `OC1CCN(c2nccnc2OC2CN(c3ccc4ccccc4n3)C2)CC1` the IC50 was 26.1 nM.
Work on `CC1CCN(c2nccnc2OC2CN(c3ccc4ccccc4n3)C2)CC1` yielded an IC50 of 124 nM.
`CN(C)C1CCN(c2nccnc2OC2CN(c3ccc4ccccc4n3)C2)CC1` gave an IC50 of 520 nM.
Compound `Cc1ccc(-c2nccnc2OC2CN(c3ccc4ccccc4n3)C2)cc1` has an IC50 of 98.7 nM.
`CNC(=O)c1ccc(-c2nccnc2OC2CN(c3ccc4ccccc4n3)C2)cc1` showed an IC50 of 15 nM.
For `N#Cc1ccc(-c2nccnc2OC2CN(c3ccc4ccccc4n3)C2)cc1`, the IC50 was 39.4 nM.
Compound `c1ccc(-c2nccnc2OC2CN(c3ccc4ccccc4n3)C2)nc1` has an IC50 of 1220 nM.
`c1ccc2nc(N3CC(Oc4nccnc4-c4ccncc4)C3)ccc2c1` gave an IC50 of 24.5 nM.
`Cc1ncccc1-c1nccnc1OC1CN(c2ccc3ccccc3n2)C1` was tested, and the IC50 was 135 nM.
For `N#CC1CCN(c2cccnc2OC2CN(c3ccc4ccccc4n3)C2)CC1`, the IC50 was 68.9 nM.
Work on `OC1CCN(c2nccnc2OC2CCN(c3ccc4ccccc4n3)CC2)CC1` yielded an IC50 of 198 nM.
With `c1ccc2nc(N3CCC(Oc4nccnc4N4CCOCC4)CC3)ccc2c1` the IC50 was 254 nM.
`O[C@@H]1CCN(c2nccnc2OC2CCN(c3ccc4ccccc4n3)CC2)C1` was tested, and the IC50 was 356 nM.
In the case of `O[C@H]1CCN(c2nccnc2OC2CCN(c3ccc4ccccc4n3)CC2)C1`, the IC50 is reported as 198 nM.
For `OC1CN(c2nccnc2OC2CCN(c3ccc4ccccc4n3)CC2)C1`, the IC50 was 1220 nM.
Work on `c1ccc2nc(N3CCC(Oc4nccnc4N4CCCCC4)CC3)ccc2c1` yielded an IC50 of 403 nM.
`c1ccc2nc(N3CCC(Oc4nccnc4N4CCCC4)CC3)ccc2c1` showed an IC50 of 286 nM.
Compound `c1ccc2nc(N3CCC(Oc4nccnc4N4CCC4)CC3)ccc2c1` has an IC50 of 273 nM.
`c1ccc2nc(N3CCC(Oc4nccnc4N4CC5(COC5)C4)CC3)ccc2c1` showed an IC50 of 345 nM.
In the case of `c1ccc2nc(N3CC(Oc4nccnc4N4CCC5(CC4)COC5)C3)ccc2c1`, the IC50 is reported as 43.6 nM.
For `C1=CCN(c2nccnc2OC2CN(c3ccc4ccccc4n3)C2)CC1`, the IC50 was 314 nM.
For `c1ccc2nc(N3CC(Oc4nccnc4N4CCC4)C3)ccc2c1`, the IC50 was 86.1 nM.
Work on `c1ccc2nc(N3CC(Oc4nccnc4N4CCCC4)C3)ccc2c1` yielded an IC50 of 10000 nM.
For `c1ccc2nc(N3CC(Oc4nccnc4N4CCCCCC4)C3)ccc2c1`, the IC50 was 334 nM.
For `OC[C@H]1CCCN1c1nccnc1OC1CN(c2ccc3ccccc3n2)C1`, the IC50 was 150 nM.
`c1ccc2nc(N3CC(Oc4nccnc4N4CCCOCC4)C3)ccc2c1` was tested, and the IC50 was 44.6 nM.
With `OC1CCCN(c2nccnc2OC2CN(c3ccc4ccccc4n3)C2)CC1` (configuration not stated) the IC50 was 29.5 nM.
With `CN1CCCN(c2nccnc2OC2CN(c3ccc4ccccc4n3)C2)CC1` the IC50 was 2990 nM.
`OCC1CCN(c2nccnc2NC2CN(c3ccc4ccccc4n3)C2)CC1` showed an IC50 of 20 nM.
With `OCC1CCN(c2ccc(Br)c(OC3CN(c4ccc5ccccc5n4)C3)n2)CC1` the IC50 was 0.229 nM.
In the case of `OCC1CCN(c2ncc(Cl)c(OC3CN(c4ccc5ccccc5n4)C3)n2)CC1`, the IC50 is reported as 10 nM.
Work on `OCC1CCN(c2ncc(F)c(OC3CN(c4ccc5ccccc5n4)C3)n2)CC1` yielded an IC50 of 20 nM.
`OCC1CCN(c2ncc(Br)c(OC3CN(c4cnc5ccccc5n4)C3)n2)CC1` gave an IC50 of 24.2 nM.
For `OC1CCN(c2ncc(Br)c(OC3CN(c4ccc5ccccc5n4)C3)n2)CC1`, the IC50 was 73.7 nM.
`COC(=O)C1CCN(c2ncc(Br)c(OC3CN(c4ccc5ccccc5n4)C3)n2)CC1` was tested, and the IC50 was 1340 nM.
Work on `CC1CCN(c2ncc(Br)c(OC3CN(c4ccc5ccccc5n4)C3)n2)CC1` yielded an IC50 of 358 nM.
Work on `OCC1CCN(c2ncc(Br)c(OC3CN(c4ccc5ccccc5n4)C3)n2)C1` (configuration not stated) yielded an IC50 of 20.6 nM.
Work on `OCC1CCN(c2ncc(Br)c(OC3CN(c4ncc5ccccc5n4)C3)n2)CC1` yielded an IC50 of 14.6 nM.
With `CN1CCN(c2nccnc2OC2CN(c3ccc4ccccc4n3)C2)CC1` the IC50 was 683 nM.
`N#CC1CCN(c2nc3ccccc3nc2OC2CN(c3ccc4ccccc4n3)C2)CC1` was tested, and the IC50 was 19.2 nM.
For `CN1CCN(c2nccnc2OC2CN(c3ccc4ccccc4n3)C2)CC1=O`, the IC50 was 33.9 nM.
In the case of `OCC1CCCN(c2nccnc2OC2CN(c3ccc4ccccc4n3)C2)C1` (configuration not stated), the IC50 is reported as 40.6 nM.
With `OC1CCN(c2nccnc2OC2CN(c3ccc4ccccc4n3)C2)C1` (configuration not stated) the IC50 was 67 nM.
`c1ccc2nc(N3CC(Oc4nccnc4N4CCC(N5CCCC5)CC4)C3)ccc2c1` showed an IC50 of 571 nM.
`CC1CN(c2nccnc2OC2CN(c3ccc4ccccc4n3)C2)CCO1` (configuration not stated) gave an IC50 of 62.8 nM.
Work on `OCC1CN(c2nccnc2OC2CN(c3ccc4ccccc4n3)C2)CCO1` (configuration not stated) yielded an IC50 of 88.6 nM.
Work on `O=C(c1nc2ccccc2[nH]1)N1CC(Oc2nccnc2N2CCOCC2)C1` yielded an IC50 of 377 nM.
For `CC(=O)N1CCN(c2nccnc2OC2CN(C(=O)c3nc4ccccc4[nH]3)C2)CC1`, the IC50 was 637 nM.
Work on `O=C(c1nc2ccccc2[nH]1)N1CC(Oc2nccnc2N2CCC(O)CC2)C1` yielded an IC50 of 186 nM.
In the case of `N#CC1CCN(c2cc(F)cnc2OC2CN(c3ccc4ccccc4n3)C2)CC1`, the IC50 is reported as 15.1 nM.
In the case of `Cc1cnc(OC2CN(c3ccc4ccccc4n3)C2)c(N2CCC(CO)CC2)c1`, the IC50 is reported as 1.52 nM.
`OCC1CCN(c2ncc(Br)c(OC3CN(c4ccc5ccccc5n4)C3)n2)CC1` gave an IC50 of 7 nM.
In the case of `OCC1CCCN(c2ncc(Br)c(OC3CN(c4ccc5ccccc5n4)C3)n2)C1` (configuration not stated), the IC50 is reported as 60 nM.
With `OCC1CCCCN1c1ncc(Br)c(OC2CN(c3ccc4ccccc4n3)C2)n1` (configuration not stated) the IC50 was 260 nM.
In the case of `OCC1CCN(c2ncc(N3CCCCC3)c(OC3CN(c4ccc5ccccc5n4)C3)n2)CC1`, the IC50 is reported as 18.4 nM.
Work on `CC(O)C1CCN(c2nccnc2OC2CN(c3ccc4ccccc4n3)C2)CC1` (configuration not stated) yielded an IC50 of 46.9 nM.
`CC(O)C1CCN(c2ncc(Br)c(OC3CN(c4ccc5ccccc5n4)C3)n2)CC1` (configuration not stated) was tested, and the IC50 was 242 nM.
`CC(=O)N1CC2(C1)CN(c1nccnc1OC1CCN(c3ccc4ccccc4n3)CC1)C2` was tested, and the IC50 was 1270 nM.
With `CC(=O)N1CCN(c2nccnc2OC2CN(c3ccc4ccccc4n3)C2)CC1` the IC50 was 77.5 nM.
For `COC1CCN(c2nccnc2OC2CCN(c3ccc4ccccc4n3)CC2)CC1`, the IC50 was 59.6 nM.
Compound `COCC1CCN(c2nccnc2OC2CCN(c3ccc4ccccc4n3)CC2)CC1` has an IC50 of 1120 nM.
`O=C1CCN(c2nccnc2OC2CCN(c3ccc4ccccc4n3)CC2)CC1` showed an IC50 of 195 nM.
With `O=C1CCN(c2nccnc2OC2CN(c3ccc4ccccc4n3)C2)CC1` the IC50 was 110 nM.
In the case of `CC(C)(O)C1CCN(c2nccnc2OC2CCN(c3ccc4ccccc4n3)CC2)CC1`, the IC50 is reported as 85.8 nM.
`CC(C)(O)C1CCN(c2nccnc2OC2CN(c3ccc4ccccc4n3)C2)CC1` gave an IC50 of 83.6 nM.
Work on `Cc1cnccc1-c1nccnc1OC1CCN(c2ccc3ccccc3n2)CC1` yielded an IC50 of 34.7 nM.
For `c1ccc2nc(N3CCC(Oc4nccnc4-c4ccncc4)CC3)ccc2c1`, the IC50 was 35.7 nM.
Compound `COc1ncccc1-c1nccnc1OC1CCN(c2ccc3ccccc3n2)CC1` has an IC50 of 118 nM.
Compound `Clc1cnccc1-c1nccnc1OC1CCN(c2ccc3ccccc3n2)CC1` has an IC50 of 83.9 nM.
`Cc1cnccc1-c1nccnc1OC1CN(c2ccc3ccccc3n2)C1` was tested, and the IC50 was 298 nM.
`Clc1cnccc1-c1nccnc1OC1CN(c2ccc3ccccc3n2)C1` gave an IC50 of 155 nM.
In the case of `Cc1ccccc1-c1nccnc1OC1CN(c2ccc3ccccc3n2)C1`, the IC50 is reported as 128 nM.
Work on `COc1ccccc1-c1nccnc1OC1CN(c2ccc3ccccc3n2)C1` yielded an IC50 of 150 nM.
In the case of `Fc1cc(-c2nccnc2OC2CN(c3ccc4ccccc4n3)C2)ccn1`, the IC50 is reported as 39.5 nM.
`N#Cc1ccccc1-c1nccnc1OC1CN(c2ccc3ccccc3n2)C1` showed an IC50 of 377 nM.
Work on `Cc1cc(F)ccc1-c1nccnc1OC1CN(c2ccc3ccccc3n2)C1` yielded an IC50 of 918 nM.
Work on `CN(C)C(=O)c1ccc(-c2nccnc2OC2CN(c3ccc4ccccc4n3)C2)cc1` yielded an IC50 of 15 nM.
`CC(=O)c1cccc(-c2nccnc2OC2CN(c3ccc4ccccc4n3)C2)c1` showed an IC50 of 11.2 nM.
For `CN(C)C(=O)c1cccc(-c2nccnc2OC2CN(c3ccc4ccccc4n3)C2)c1`, the IC50 was 22.8 nM.
In the case of `N#Cc1ccc(-c2nccnc2OC2CN(c3ccc4ccccc4n3)C2)cn1`, the IC50 is reported as 50.6 nM.
`Cc1cc(-c2nccnc2O[C@@H]2CCN(c3ccc4ccccc4n3)C2)ccn1` was tested, and the IC50 was 255 nM.
In the case of `Cc1cc(-c2nccnc2O[C@H]2CCN(c3ccc4ccccc4n3)C2)ccn1`, the IC50 is reported as 639 nM.
With `c1cncc(-c2nccc(OC3CN(c4ccc5ccccc5n4)C3)n2)c1` the IC50 was 35.6 nM.
For `Nc1ccc(-c2nccc(OC3CN(c4ccc5ccccc5n4)C3)n2)cc1`, the IC50 was 110 nM.
With `Fc1ccc(-c2nccnc2OC2CN(c3ccc4ccccc4n3)C2)cn1` the IC50 was 45.7 nM.
In the case of `Cc1ccncc1-c1nccnc1OC1CN(c2ccc3ccccc3n2)C1`, the IC50 is reported as 251 nM.
Work on `COc1cccc(-c2nccnc2OC2CN(c3ccc4ccccc4n3)C2)c1` yielded an IC50 of 19 nM.
Compound `COc1cccc(-c2nccnc2OC2CN(c3ncc4ccccc4n3)C2)c1` has an IC50 of 148 nM.
For `COc1ncccc1-c1nccnc1OC1CN(c2ncc3ccccc3n2)C1`, the IC50 was 178 nM.
`Cc1cccc(-c2nc3ccccc3nc2OC2CN(c3ccc4ccccc4n3)C2)c1` showed an IC50 of 53.5 nM.
With `C1=C(c2nccnc2OC2CN(c3ccc4ccccc4n3)C2)CCOC1` the IC50 was 14.9 nM.

Source: ChEMBL document CHEMBL3639166, “Heteroaryloxyheterocyclyl compounds as PDE10 inhibitors” (2013)
